In patent publication US20260297542A1, “HERBICIDE RESISTANT PLANTS” (SYNGENTA CROP PROTECTION AG, priority 2023, published 2026):
Residue numbers refer to the chain shown, from its start.

Columns and labels:
Test in all cases: E. coli hemG growth inhibition by herbicide, AtPPO1 variant
Type in all cases: cell-based
Details in all cases: read-out: percentage growth inhibition
AtPPO1 Y361T = target: T1, AtPPO1 Y361T (Arabidopsis thaliana, UniProt P55826, Y361T)
T1 construct: expressed in transfected cells; host or cells: E. coli BL21(DE3) hemG (pET24a, T7 promoter)
T1 sequence (P55826 35-537 Y361T): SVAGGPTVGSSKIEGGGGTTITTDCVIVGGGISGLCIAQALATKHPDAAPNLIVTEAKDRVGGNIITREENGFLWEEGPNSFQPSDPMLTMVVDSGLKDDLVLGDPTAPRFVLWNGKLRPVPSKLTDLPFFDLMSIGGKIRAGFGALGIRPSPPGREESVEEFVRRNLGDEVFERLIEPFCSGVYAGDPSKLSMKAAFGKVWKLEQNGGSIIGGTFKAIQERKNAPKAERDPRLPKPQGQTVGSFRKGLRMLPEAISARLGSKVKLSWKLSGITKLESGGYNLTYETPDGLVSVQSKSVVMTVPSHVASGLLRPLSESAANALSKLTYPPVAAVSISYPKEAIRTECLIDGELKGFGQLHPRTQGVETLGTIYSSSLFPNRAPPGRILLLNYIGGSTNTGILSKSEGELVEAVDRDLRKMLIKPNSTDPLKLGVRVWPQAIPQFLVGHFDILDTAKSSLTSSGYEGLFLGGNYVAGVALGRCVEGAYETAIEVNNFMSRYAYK
In short: (§1)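 AtPPO1 variants from a site-saturation library, codon-optimised and T7-driven in pET24a, were expressed in E. coli BL21(DE3) lacking hemG (hemG replaced by CmR). Growth in Terrific broth with 0.1 mM IPTG plus 6.25 ppm herbicide 0 or E, 0.78 ppm herbicide B, or DMSO was read as OD600 after 24 h at 37° C; inhibition was calculated against the DMSO culture.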

AtPPO1 L360C = target: T2, AtPPO1 L360C (Arabidopsis thaliana, UniProt P55826, L360C)
T2 construct: expressed in transfected cells; host or cells: E. coli BL21(DE3) hemG (pET24a, T7 promoter)
T2 sequence (P55826 35-537 L360C): T1 sequence (P55826 35-537 Y361T) with L326C, T327Y
In short: as §1

AtPPO1 L479N = target: T3, AtPPO1 L479N (Arabidopsis thaliana, UniProt P55826, L479N)
T3 construct: expressed in transfected cells; host or cells: E. coli BL21(DE3) hemG, pET24a plasmid
T3 sequence (P55826 35-537 L479N): T1 sequence (P55826 35-537 Y361T) with T327Y, L445N
In short: as §1

AtPPO1 Q272I = target: T4, AtPPO1 Q272I (Arabidopsis thaliana, UniProt P55826, Q272I)
T4 construct: expressed in transfected cells; host or cells: E. coli BL21(DE3) hemG (hemG replaced by CmR), pET24a plasmid
T4 sequence (P55826 35-537 Q272I): T1 sequence (P55826 35-537 Y361T) with Q238I, T327Y
In short: as §1

Structure (SMILES)	inhibition at 6.25 ppm (AtPPO1 Y361T)	inhibition at 6.25 ppm (AtPPO1 L360C)	inhibition at 6.25 ppm (AtPPO1 L479N)	inhibition at 6.25 ppm (AtPPO1 Q272I)	inhibition at 0.78 ppm (AtPPO1 Y361T)	inhibition at 0.78 ppm (AtPPO1 L360C)	inhibition at 0.78 ppm (AtPPO1 L479N)	inhibition at 0.78 ppm (AtPPO1 Q272I)
CC(C)N(C)S(=O)(=O)NC(=O)c1cc(-n2c(=O)cc(C(F)(F)F)n(C)c2=O)c(F)cc1Cl [Herbicide E, saflufenacil]	37%	33%	31%	63%	–	–	–	–
C#CCN1C(=O)C(F)(F)Oc2cc(F)c(-n3c(=O)n(C)c(=S)n(C)c3=O)cc21 [Herbicide B, trifludimoxazin]	–	–	–	–	37%	25%	23%	24%
CCOC(=O)[C@]1(C)CC(c2cc(-n3c(=O)n(C)c(=S)n(C)c3=O)c(F)cc2Cl)=NO1 [Herbicide D, ethyl (5S)-3-[2-chloro-5-(3,5-dimethyl-2,6-dioxo-4-thioxo-1,3,5-triazinan-1-yl)-4-fluoro-phenyl]-5-methyl-4H-isoxazole-5-carboxylate]	44%	21%	3%	29%	–	–	–	–
